Converted amounts (≈) assume the structure as drawn. The source made the active and inactive calls. The calls are words filed in the database; no cut-off is given here.
Key:
Assay type in all cases: functional
Aspergillus flavus [1] = assay: Antifungal activity against Aspergillus flavus
Aspergillus flavus [2] = assay: Antifungal activity against Aspergillus flavus after 72 to 96 hrs by broth dilution method
Aspergillus niger [3] = assay: Antifungal activity against Aspergillus niger
Fusarium [4] = assay: Antifungal activity against Fusarium after 72 to 96 hrs by broth dilution method
Fusarium [5] = assay: Antifungal activity against Fusarium
Aspergillus niger [6] = assay: Antifungal activity against Aspergillus niger after 72 to 96 hrs by broth dilution method
Rhizopus [7] = assay: Antifungal activity against Rhizopus after 72 to 96 hrs by broth dilution method
Rhizopus [8] = assay: Antifungal activity against Rhizopus
Penicillium [9] = assay: Antifungal activity against Penicillium
Penicillium [10] = assay: Antifungal activity against Penicillium after 72 to 96 hrs by broth dilution method
Klebsiella pneumoniae [11] = assay: Antibacterial activity against Klebsiella pneumoniae
Klebsiella pneumoniae [12] = assay: Antibacterial activity against Klebsiella pneumoniae after 24 hrs by broth dilution method
Pseudomonas aeruginosa [13] = assay: Antibacterial activity against Pseudomonas aeruginosa
Escherichia coli [14] = assay: Antibacterial activity against Escherichia coli
Pseudomonas aeruginosa [15] = assay: Antibacterial activity against Pseudomonas aeruginosa after 24 hrs by broth dilution method
Escherichia coli [16] = assay: Antibacterial activity against Escherichia coli after 24 hrs by broth dilution method
Bacillus subtilis [17] = assay: Antibacterial activity against Bacillus subtilis
Bacillus subtilis [18] = assay: Antibacterial activity against Bacillus subtilis after 24 hrs by broth dilution method
Enterococcus faecalis [19] = assay: Antibacterial activity against Streptococcus faecalis
Enterococcus faecalis [20] = assay: Antibacterial activity against Streptococcus faecalis after 24 hrs by broth dilution method

SMILES	MIC (Aspergillus flavus [2]) [µg/mL]	MIC (Fusarium [4]) [µg/mL]	MIC (Aspergillus niger [6]) [µg/mL]	MIC (Rhizopus [7]) [µg/mL]	MIC (Penicillium [10]) [µg/mL]	MIC (Klebsiella pneumoniae [12]) [µg/mL]	MIC (Pseudomonas aeruginosa [15]) [µg/mL]	MIC (Escherichia coli [16]) [µg/mL]	MIC (Bacillus subtilis [18]) [µg/mL]	MIC (Enterococcus faecalis [20]) [µg/mL]	inhibition zone (IZ) (Aspergillus flavus [1])	inhibition zone (IZ) (Aspergillus niger [3])	inhibition zone (IZ) (Fusarium [5])	inhibition zone (IZ) (Rhizopus [8])	inhibition zone (IZ) (Penicillium [9])	inhibition zone (IZ) (Klebsiella pneumoniae [11])	inhibition zone (IZ) (Pseudomonas aeruginosa [13])	inhibition zone (IZ) (Escherichia coli [14]) [mm]	inhibition zone (IZ) (Bacillus subtilis [17]) [mm]	inhibition zone (IZ) (Enterococcus faecalis [19])
CCC1/C(=N/OC(=O)OC)CC(c2ccccc2)N(C)C1c1ccccc1 (stereo not given)	200 (≈ 546 µM)	200 (≈ 546 µM)	200 (≈ 546 µM)	100 (≈ 273 µM)	200 (≈ 546 µM)	200 (≈ 546 µM)	200 (≈ 546 µM)	25 (≈ 68.2 µM)	25 (≈ 68.2 µM)	100 (≈ 273 µM)	inactive	inactive	inactive	12 mm	inactive	inactive	inactive	12	12	12 mm
COC(=O)O/N=C1\CC(c2ccccc2)N(C)C(c2ccccc2)C1C (stereo not given)	100 (≈ 284 µM)	200 (≈ 567 µM)	200 (≈ 567 µM)	200 (≈ 567 µM)	200 (≈ 567 µM)	200 (≈ 567 µM)	200 (≈ 567 µM)	50 (≈ 142 µM)	50 (≈ 142 µM)	200 (≈ 567 µM)	12 mm	inactive	inactive	inactive	inactive	inactive	inactive	12	12	inactive
CCC1/C(=N/O)CC(c2ccccc2)N(C)C1c1ccccc1 (stereo not given)	200 (≈ 648 µM)	200 (≈ 648 µM)	200 (≈ 648 µM)	100 (≈ 324 µM)	200 (≈ 648 µM)	200 (≈ 648 µM)	200 (≈ 648 µM)	50 (≈ 162 µM)	50 (≈ 162 µM)	200 (≈ 648 µM)	inactive	inactive	inactive	12 mm	inactive	inactive	inactive	12	12	12 mm

The next lines start with results.

MIC (Aspergillus flavus [2]) [µg/mL]	MIC (Fusarium [4]) [µg/mL]	MIC (Aspergillus niger [6]) [µg/mL]	MIC (Rhizopus [7]) [µg/mL]	MIC (Penicillium [10]) [µg/mL]	MIC (Klebsiella pneumoniae [12]) [µg/mL]	MIC (Pseudomonas aeruginosa [15]) [µg/mL]	MIC (Escherichia coli [16]) [µg/mL]	MIC (Bacillus subtilis [18]) [µg/mL]	MIC (Enterococcus faecalis [20]) [µg/mL]	SMILES	inhibition zone (IZ) (Aspergillus flavus [1])	inhibition zone (IZ) (Aspergillus niger [3])	inhibition zone (IZ) (Fusarium [5])	inhibition zone (IZ) (Rhizopus [8])	inhibition zone (IZ) (Penicillium [9])	inhibition zone (IZ) (Klebsiella pneumoniae [11])	inhibition zone (IZ) (Pseudomonas aeruginosa [13])	inhibition zone (IZ) (Escherichia coli [14]) [mm]	inhibition zone (IZ) (Bacillus subtilis [17]) [mm]	inhibition zone (IZ) (Enterococcus faecalis [19])
100 (≈ 253 µM)	200 (≈ 507 µM)	200 (≈ 507 µM)	200 (≈ 507 µM)	200 (≈ 507 µM)	200 (≈ 507 µM)	200 (≈ 507 µM)	12.5 (≈ 31.7 µM)	12.5 (≈ 31.7 µM)	50 (≈ 127 µM)	CCOC(=O)O/N=C1\CC(c2ccccc2)N(C)C(c2ccccc2)C1C(C)C (stereo not given)	12 mm	inactive	inactive	inactive	inactive	inactive	inactive	17	12	12 mm
100 (≈ 263 µM)	200 (≈ 526 µM)	200 (≈ 526 µM)	200 (≈ 526 µM)	200 (≈ 526 µM)	200 (≈ 526 µM)	200 (≈ 526 µM)	12.5 (≈ 32.9 µM)	12.5 (≈ 32.9 µM)	50 (≈ 131 µM)	COC(=O)O/N=C1\CC(c2ccccc2)N(C)C(c2ccccc2)C1C(C)C (stereo not given)	12 mm	inactive	inactive	inactive	inactive	inactive	inactive	17	12	12 mm
100 (≈ 273 µM)	200 (≈ 546 µM)	200 (≈ 546 µM)	200 (≈ 546 µM)	200 (≈ 546 µM)	200 (≈ 546 µM)	200 (≈ 546 µM)	50 (≈ 136 µM)	50 (≈ 136 µM)	200 (≈ 546 µM)	CCOC(=O)O/N=C1\CC(c2ccccc2)N(C)C(c2ccccc2)C1C (stereo not given)	12 mm	inactive	inactive	inactive	inactive	inactive	inactive	12	12	inactive
